Assay results from patent publication US8648068B2, “Heterocycloalkyl-containing thienopyrimidines for pharmaceutical compositions” (Boehringer Ingelheim International GmbH, priority 2010, dated 2014).
Structures can show the parent of a compound that is named as a salt.

Target: T1, human Mnk2a (Homo sapiens, UniProt Q9HBH9)
T1 construct: made in house; host or cells: E. coli BL21 (vector pGEX-4T1)
Test: Mnk2a in vitro kinase assay (indirect fluorescence polarization)
Assay type: biochemical
Settings: GST-Mnk2a pre-activated with ERK2, 20 μM ATP, 30 μM substrate peptide; read-out: MNK2 IC50
Experimental: Inhibitory potency of compounds against Mnk1, Mnk2a and other kinases was assessed with assays based on a format known to those skilled in the art as the indirect (competitive) fluorescence polarization. The assay detection system comprises a small fluorophore-labeled phospho-peptide (termed ligand) bound to a phospho-specific antibody. The product generated by the kinase reaction competes with the ligand for antibody binding. Based on the larger molecular volume of the bound ligand, which results in a lower rotation rate in solution, its emitted light has a higher degree of polarization than the one from the free ligand.
As a source of enzyme, human Mnk1 and human Mnk2a were expressed as GST fusion proteins in E. coli, purified to >80% homogeneity by glutathione affinity chromatography and activated in vitro with pre-activated ERK2. In brief, the open reading frames of human Mnk1 and Mnk2a were amplified from cDNA using the forward/reverse primer pairs
(utilized restriction sites underlined), respectively, and cloned into the BamHI and SalI sites of the vector pGEX-4T1 (Amersham, Sweden, cat. no. 27-4580-01). These constructs allow prokaryotic expression of Mnk1 or Mnk2a as fusion protein with a N-terminal glutathione S-transferase (GST) tag, referred to as GST-Mnk1 or GST-Mnk2a. The following expression and purification procedure was identical for GST-Mnk1 and GST-Mnk2a, referring in general to GST-Mnk, when not distinguishing between the two isoforms. Expression of GST-Mnk was in E. coli BL21 (Merck Biosciences, Germany, cat. no. 69449). Cells were grown in LB-Bouillon (Merck, Germany, cat. no. 1.10285) supplemented with 100 μg/ml ampicillin (Sigma, Germany, cat. no. A9518) at 37° C. When the culture had reached a density corresponding to an A600 of 0.8, an equal volume of ice cold LB/ampicillin was added, the culture transferred to 25° C. and induced for 4 h with 1 mM isopropyl thiogalactoside (IPTG, Roth, Germany, cat. no. 2316.4). Cells harvested by centrifugation were resuspended in 10 ml lysis buffer (50 mM tris(hydroxymethyl)aminomethane hydrochloride (Tris/HCl, Sigma, Germany, cat. no. T5941) pH 7.5, 300 mM sodium chloride (NaCl, Sigma, Germany, cat. no. S7653), 5% (w/v) glycerol (Sigma, Germany, cat. no. G5516), 3 mM DTT dithiotreitol (DTT, Sigma, Germany, cat. no. D9779)) per gram wet weight cell pellet. Lysates were prepared by disruption of cells with a sonifier and subsequent clearing by centrifugation at 38000 g for 45 min at 4° C.
The lysate was applied to a GSTPrep FF 16/10 column (Amersham, Sweden, cat. no. 17-5234-01) equilibrated with lysis buffer. Removal of unbound material was with 3 column volumes (CV) lysis buffer. Elution was with 2 CV of elution buffer (50 mM Tris/HCl pH 7.5, 300 mM NaCl, 5% (w/v) glycerol, 20 mM glutathione (Sigma, Germany, cat. no. G4251)). Peak fractions were pooled and the protein transferred into storage buffer (50 mM Tris/HCl pH 7.5, 200 mM NaCl, 0.1 mM ethylene glycol-bis(2-aminoethylether)-N,N,N′,N′-tetraacetic acid (EGTA, Aldrich, Germany, cat. no. 23, 453-2), 1 mM DTT, 10% (w/v) glycerol, 0.5 M sucrose (Sigma, Germany, cat. no. SO389) by gel filtration on a PD10 desalting column (Amersham, Sweden, cat. no. 17-0851-01). Aliquots were shock frozen in liquid nitrogen and stored at −80° C.
Activation of Mnk1 and Mnk2a was at a concentration of 2.5 μM of either purified GST-Mnk1 or GST-Mnk2a by incubation with 150 nM pre-activated NHis-ERK2 (see ERK2 assay for preparation) and 50 μM adenosine triphosphate (ATP, Sigma, cat. no. A2699) in a buffer comprising 20 mM N-(2-hydroxyethyl)piperazine-N′-(2-ethanesulfonic acid) (HEPES, Fluka, Germany, cat. no 54459)/potassium hydroxide (KOH, Roth, Germany, cat. no 6751.1) pH 7.4, 10 mM magnesium chloride (MgCl2, Sigma, Germany, cat. no. M2670), 0.25 mM DTT, 0.05% (w/v) polyoxyethylene 20 stearylether (Brij 78, Sigma, Germany, cat. no. P4019) (HMDB buffer) for 45 min at 30° C. […]

T1 sequence (Q9HBH9 whole entry): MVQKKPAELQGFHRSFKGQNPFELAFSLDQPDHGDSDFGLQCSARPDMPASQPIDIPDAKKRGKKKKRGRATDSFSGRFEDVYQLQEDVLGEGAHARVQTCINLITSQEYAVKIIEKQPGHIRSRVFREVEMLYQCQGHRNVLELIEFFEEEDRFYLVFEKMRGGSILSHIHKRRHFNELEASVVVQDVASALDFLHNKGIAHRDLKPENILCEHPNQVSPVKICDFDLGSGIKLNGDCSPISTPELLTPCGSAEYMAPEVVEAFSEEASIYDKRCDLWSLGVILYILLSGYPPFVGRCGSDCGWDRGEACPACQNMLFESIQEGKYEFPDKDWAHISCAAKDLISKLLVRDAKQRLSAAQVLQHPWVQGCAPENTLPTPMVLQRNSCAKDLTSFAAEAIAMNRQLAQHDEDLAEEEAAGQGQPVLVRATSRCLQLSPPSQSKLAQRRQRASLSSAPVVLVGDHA

SMILES	IC50 [nM]
Cc1c(C(=O)NC2CCCNCC2)sc2ncnc(Nc3ccc(F)cc3OC3CCOC3)c12 (stereo in doubt) [Compound 277, 4-{4-Fluoro-2-[(R)-(tetrahydro-furan-3-yl)oxy]-phenylamino}-5-methyl-thieno[2,3-d]pyrimidine-6-carboxylic acid azepan-4-ylamide trifluoroacetate]	59
Cc1c(C(=O)N[C@H]2CCC[C@@H]2O)sc2ncnc(Nc3cccnc3OC3CCOCC3)c12 [Compound 278, 5-Methyl-4-[2-(tetrahydro-pyran-4-yloxy)-pyridin-3-ylamino]-thieno[2,3-d]pyrimidine-6-carboxylic acid ((1S,2S)-2-hydroxy-cyclopentyl)-amide]	79
COCCN1CCC[C@H](Oc2cc(F)ccc2Nc2ncnc3sc(C(N)=O)c(C)c23)C1 [Example 1, 4-{4-Fluoro-2-[(S)-1-(2-methoxy-ethyl)-piperidin-3-yloxy]-phenylamino}-5-methyl-thieno[2,3-d]pyrimidine-6-carboxylic acid amide]	490
Cc1c(C(N)=O)sc2ncnc(Nc3ccc(F)cc3O[C@H]3CCCN(CC(=O)N(C)C)C3)c12 [Example 2]	470
Cc1c(C(N)=O)sc2ncnc(Nc3ccc(F)cc3O[C@H]3CCCN(CCC#N)C3)c12 [Example 3]	120
Cc1c(C(N)=O)sc2ncnc(Nc3ccc(F)cc3O[C@H]3CCCN(Cc4ncon4)C3)c12 [Example 4]	110
Cc1c(C(N)=O)sc2ncnc(Nc3ccc(F)cc3O[C@H]3CCCN(CC(F)(F)F)C3)c12 [Example 5]	110
Cc1c(C(N)=O)sc2ncnc(Nc3ccc(F)cc3O[C@H]3CCCN(CCO)C3)c12 [Example 6, (S)-4-(4-fluoro-2-(1-(2-hydroxyethyl)piperidin-3-yloxy)phenylamino)-5-methylthieno[2,3-d]pyrimidine-6-carboxamide]	120
Cc1c(C(N)=O)sc2ncnc(Nc3ccc(F)cc3O[C@H]3CCCN(CC(C)C)C3)c12 [Example 7]	4400
Cc1c(C(N)=O)sc2ncnc(Nc3ccc(F)cc3O[C@H]3CCCN(C)C3)c12 [Example 8]	80
Cc1c(C(N)=O)sc2ncnc(Nc3ccc(F)cc3O[C@H]3CCCN(CCC(F)(F)F)C3)c12 [Example 9]	180
Cc1c(C(=O)NC(C)C)sc2ncnc(Nc3ccc(F)cc3O[C@H]3CCCNC3)c12 [Example 12]	61
COCCNC(=O)c1sc2ncnc(Nc3ccc(F)cc3O[C@H]3CCCNC3)c2c1C [Example 13]	59

The remaining molecules from weak to strong by IC50, led by results:

IC50 [nM]	SMILES
58	Cc1c(C(=O)NCCF)sc2ncnc(Nc3ccc(F)cc3OC3CCCNC3)c12 (stereo not drawn) [Example 18]
53	Cc1c(C(=O)NCCC[S+](C)[O-])sc2ncnc(Nc3cccnc3OC3CCOCC3)c12 (stereo not drawn) [Compound 282, 5-Methyl-4-[2-(tetrahydro-pyran-4-yloxy)-pyridin-3-ylamino]-thieno[2,3-d]pyrimidine-6-carboxylic acid (3-methanesulfinyl-propyl)-amide]
40	Cc1c(C(=O)NCc2nccn2C)sc2ncnc(Nc3ccc(F)cc3O[C@H]3CCCNC3)c12 [Example 14]
39	CNC(=O)c1sc2ncnc(Nc3ccc(F)cc3O[C@H]3CCCNC3)c2c1C [Example 11, 4-[4-Fluoro-2-((S)-piperidin-3-yloxy)-phenylamino]-5-methyl-thieno[2,3-d]pyrimidine-6-carboxylic acid methylamide]
31	Cc1c(C(=O)NCCO)sc2ncnc(Nc3ccc(F)cc3O[C@H]3CCCNC3)c12 [Example 15]
30	Cc1c(C(=O)NCCCO)sc2ncnc(Nc3ccc(F)cc3O[C@H]3CCCNC3)c12 [Example 16]
30	Cc1c(C(=O)NC2CC2)sc2ncnc(Nc3ccc(F)cc3O[C@H]3CCCNC3)c12 [Example 17]
10	Cc1c(C(N)=O)sc2ncnc(Nc3ccc(F)cc3O[C@H]3CCCN(S(C)(=O)=O)C3)c12 [Example 10, (S)-4-(4-fluoro-2-(1-(methylsulfonyl)piperidin-3-yloxy)phenylamino)-5-methylthieno[2,3-d]pyrimidine-6-carboxamide]
